One data set deals with T1, hIBAT (Homo sapiens, UniProt Q12908).
T1 construct: expressed in transfected cells; kept under Puromycin selection
T1 sequence (Q12908 1-348): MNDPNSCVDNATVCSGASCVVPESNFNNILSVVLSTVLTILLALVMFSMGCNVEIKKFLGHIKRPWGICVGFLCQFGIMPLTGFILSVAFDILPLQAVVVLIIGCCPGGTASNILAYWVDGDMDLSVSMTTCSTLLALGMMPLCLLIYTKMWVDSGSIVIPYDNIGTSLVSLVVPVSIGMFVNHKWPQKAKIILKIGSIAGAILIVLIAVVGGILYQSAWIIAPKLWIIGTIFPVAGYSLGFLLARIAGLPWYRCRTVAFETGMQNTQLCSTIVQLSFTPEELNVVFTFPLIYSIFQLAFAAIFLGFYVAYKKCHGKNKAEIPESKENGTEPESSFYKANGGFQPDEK
The data set is described as follows: IBAT (h/m) assay, 3H-taurocholic acid uptake in human IBAT-overexpressing cells. Format: cell-based. The conditions noted are these: 0.25 μM 3H-taurocholic acid and 5 μM cold taurocholic acid, 20 minutes. How it is done: 10,000 cells (Human or Mouse IBAT-overexpressing cells) were seeded in 96-wells plate (Corning CLS3809) in 200 μL MEM-alpha medium (Gibco 12571-063) supplemented with 10% FBS (Gibco 10438026) containing Puromycin (Gibco A1113803) (10 μg/mL) and incubated at 37° C. in 5% CO2 for 48 hours. After incubation, media was decanted from the wells and cells were washed two times with 300 μL of basal MEM-alpha medium (FBS-free). After decanting basal MEM-alpha medium each time, plates were tapped against paper towel to ensure maximum removal of residual media. Test inhibitor dilutions (highest test concentration being 10 μM, 3-fold serial dilution, 10 points) prepared in DMSO (Sigma D2650) were added in incubation mix (maintaining 0.2% final DMSO concentration) containing 0.25 μM 3H-taurocholic acid (ARC ART-1368) and 5 μM of cold taurocholic acid (Sigma T4009). 50 μL of incubation mix containing test inhibitors was then added to the wells (in duplicate) and the plates were incubated for 20 minutes in a CO2 incubator at 37° C. After incubation, the reaction was stopped by keeping the plates on ice water mix for 2-3 minutes and then the incubation mix was aspirated completely from the wells. The wells were washed two times with 250 μL of chilled unlabelled 1 mM taurocholic acid dissolved in HEPES (Gibco 15630080)-buffered (10 mM) HBSS (Gibco 14175079) (pH 7.4). The plates were tapped against a paper towel after every wash to ensure maximum removal of blocking buffer.
100 μL of MicroScint-20 (PerkinElmer 6013621) was added to the wells and kept overnight at room temperature before reading the plates in TopCount NXT™ Microplate Scintillation and Luminescence Counter from PerkinElmer under 3H Test protocol (set at 120 seconds reading time per well).
(§1) All test compounds were provided in powder form at room temperature. 10 mM DMSO stocks of the test compounds were prepared, aliquoted and stored at −20° C. From the 10 mM DMSO stock of the compounds, a 3-fold serial dilution in DMSO was prepared to get a total of 10 dilutions of the test compounds. 0.5 μL of this dilution in DMSO was added to 250 μL of FBS-free basal media containing 3H-taurocholic acid and cold taurocholic acid to prepare the incubation mixture.

For the next data set, the target named is T2, hLBAT (Homo sapiens, UniProt Q14973).
T2 construct: expressed in transfected cells; kept under Geneticin selection
T2 sequence (Q14973 1-349): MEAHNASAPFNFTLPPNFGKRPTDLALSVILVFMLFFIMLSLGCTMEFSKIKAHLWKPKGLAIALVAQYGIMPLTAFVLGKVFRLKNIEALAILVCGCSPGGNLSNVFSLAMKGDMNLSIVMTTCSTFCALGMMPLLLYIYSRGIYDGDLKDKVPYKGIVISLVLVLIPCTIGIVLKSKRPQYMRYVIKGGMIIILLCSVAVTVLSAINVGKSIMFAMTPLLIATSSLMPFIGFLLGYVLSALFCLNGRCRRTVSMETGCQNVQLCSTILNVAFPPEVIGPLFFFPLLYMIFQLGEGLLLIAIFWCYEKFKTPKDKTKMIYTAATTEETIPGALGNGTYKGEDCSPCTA
The data set is described as follows: LBAT (h/m) assay, 3H-taurocholic acid uptake in human LBAT-overexpressing cells. Format: cell-based. The conditions noted are these: 0.3 μM 3H-taurocholic acid and 7.5 μM cold taurocholic acid, 20 minutes. How it is done: 20,000 cells (Human or Mouse LBAT-overexpressing cells) were seeded in 96-wells plate (Corning CLS3809) in 100 μL MEM-alpha medium (Gibco 12571-063) supplemented with 10% FBS (Gibco 10438026) containing Geneticin (Gibco 10131-027) (1 mg/mL) and incubated at 37° C. in 5% CO2 for 24 hours. After incubation, media was decanted from the wells and cells were washed two times with 300 μL of basal MEM-alpha medium (FBS-free). After decanting basal MEM-alpha medium each time, plates were tapped against paper towel to ensure maximum removal of residual media. For human LBAT, incubation mix was prepared by adding test inhibitor dilutions (3-fold serial dilution in DMSO (Sigma D2650), 10 points) in MEM-alpha (without FBS) containing 0.3 μM 3H-taurocholic acid (ARC ART-1368) and 7.5 μM cold taurocholic acid (Sigma T4009) (maintaining 0.2% final DMSO concentration). For mouse LBAT, incubation mix was prepared by adding test inhibitor dilutions (3-fold serial dilution in DMSO, 10 points) in MEM-alpha (without FBS) containing 0.3 μM 3H-taurocholic acid and 25 μM cold taurocholic acid maintaining 0.2% final DMSO concentration). 50 μL of incubation mix containing test inhibitors was then added to the wells (in duplicate) and the plates were incubated for 20 minutes in a CO2 incubator at 37° C. After incubation, the reaction was stopped by keeping the plates on ice water mix for 2-3 minutes and then the incubation mix was aspirated completely from the wells. The wells were washed two times with 250 μL of chilled unlabelled 1 mM taurocholic acid dissolved in HEPES (Gibco 15630080)-buffered (10 mM) HBSS (Gibco 14175079) (pH 7.4). The plates were tapped against a paper towel after every wash to ensure maximum removal of blocking buffer.
100 μL of MicroScint-20 (PerkinElmer 6013621) was added to the wells and kept overnight at room temperature before reading the plates in TopCount NXT™ Microplate Scintillation and Luminescence Counter from PerkinElmer under 3H Test protocol (set at 120 seconds reading time per well, with normal plate orientation).
as §1

Data set [1] in a line: Bidirectional permeability assay (Caco-2 cells). Conditions: human, Caco-2.
Method: Caco-2 cells (Evotec) were seeded at a density of 70,000 cells/well in Millicell® 24-well cell culture insert plates and maintained in an incubator (37° C., 5% CO2, 95% RH) for 21 days with media change on alternate days.
Stock solutions (10 mM) of the test compounds, atenolol (low permeability marker), propranolol (high permeability marker) and digoxin (substrate for P-gp transport pathway) were prepared in dimethylsulfoxide (DMSO). An intermediate stock solution (1 mM) was prepared by diluting 10 μL of 10 mM master stock solution with 90 μL of neat DMSO. A working stock solution (10 μM) was prepared by diluting 50 μL of 1 mM with 4950 μL of FaSSIF buffer. Post addition of compounds to the FaSSIF, samples were subjected to sonication for 2 hours, and centrifuged at 4000 RPM for 30 minutes at 37° C. The 4 mL of resultant supernatant was directly used in the assay. The final DMSO concentration in the transport experiments was 1%.
On the day of assay, Caco-2 monolayers were washed twice with transport buffer (HBSS, pH 7.4) and pre-incubated for 30 min (37° C., 5% CO2, 95% RH) in an incubator. The electrical resistance of the monolayers was measured with a Millicell®—ERS system. Monolayers with trans-epithelial electrical resistance (TEER) values greater than 350 ohm·cm^2 were selected for the assay.
The assay was conducted in absorptive direction (A2B) and secretory (B2A) directions. Transport experiments were initiated by addition of transport assay buffer (FaSSIF buffer prepared in HBSS) consisting of compounds to the donor compartment (apical chamber A-B; basolateral chamber B-A) in duplicate (n=2) wells. Drug free HBSS buffer (pH 7.4) containing 1% bovine serum albumin (BSA) was introduced to the receiver (A-B-basolateral; B-A-Apical) compartments. The volumes of apical and basolateral compartments were 0.4 and 0.8 mL, respectively. After adding dosing solution, plates were incubated in an incubator for 120 minutes at 37° C. After 120 minutes, donor and receiver samples were collected and matrix matched (1:1, 30 μL study sample+30 μL blank buffer) with the opposite buffer. Dosing samples matrix matched (1:1, 30 μL study sample+30 μL blank buffer) with the opposite buffer. Samples were processed by adding acetonitrile containing internal standard (60 μL study sample+200 μL acetonitrile containing internal standard—Tolbutamide, 500 ng/mL). Samples were vortexed and centrifuged at 4000 rpm for 10 minutes. The obtained supernatant (100 μL) was diluted with 100 μL of water and transferred to fresh 96 well plates. The concentration of compounds in the samples was analyzed by liquid chromatography tandem mass spectrometry (LC-MS/MS) method using discovery grade bio-analytical method, as applicable.
The mean apparent permeability (Papp, ×10^−6 cm/sec) of the test compounds, atenolol, propranolol and digoxin were calculated as follows:

Take “(S)—(Z)-3-((3-butyl-7-(dimethylamino)-3-ethyl-1,1-dioxido-5-phenyl-2,3,4,5-tetrahydro-1,2,5-benzothiadiazepin-8-yl)oxy)-2-fluoroacrylic acid and (R)—(Z)-3-((3-butyl-7-(dimethylamino)-3-ethyl-1,1-dioxido-5-phenyl-2,3,4,5-tetrahydro-1,2,5-benzothiadiazepin-8-yl)oxy)-2-fluoroacrylic acid [Example 4]”: the IC50 came out at 91 nM against hIBAT and 77 nM on hLBAT.
Regarding `CCCCC1(CC)CN(c2ccccc2)c2cc(N(C)C)c(O/C=C/C(=O)O)cc2S(=O)(=O)N1` (centres unmarked) [Example 13, (E)-3-((3-butyl-7-(dimethylamino)-3-ethyl-1,1-dioxido-5-phenyl-2,3,4,5-tetrahydro-1,2,5-benzothiadiazepin-8-yl)oxy)acrylic acid], the IC50 on hIBAT was 13 nM. Further, in data set [1], the Papp A→B at 120 min, 10 µM came to 22 ×10⁻⁶ cm/s and the Papp B→A at 120 min, 10 µM was determined as 18 ×10⁻⁶ cm/s. At hLBAT, this compound registered an IC50 of 1860 nM.
As for `CCC1(C(C)C)CN(c2ccccc2)c2cc(SC)c(O/C=C(\F)C(=O)O)cc2S(=O)(=O)C1` (centres unmarked) [Example 17, (Z)-3-((3-ethyl-3-isopropyl-7-(methylthio)-1,1-dioxido-5-phenyl-2,3,4,5-tetrahydro-1,5-benzothiazepin-8-yl)oxy)-2-fluoroacrylic acid], the IC50 on hIBAT stood at 378 nM; at hLBAT, 17 nM.
For `CCC[C@@]1(CC)CN(c2ccccc2)c2cc(SC)c(O/C=C(\F)C(=O)O)cc2S(=O)(=O)C1.CCC[C@]1(CC)CN(c2ccccc2)c2cc(SC)c(O/C=C(\F)C(=O)O)cc2S(=O)(=O)C1` (mixture of isomers) [Example 19, (S)—(Z)-3-((3-ethyl-7-(methylthio)-1,1-dioxido-5-phenyl-3-propyl-2,3,4,5-tetrahydro-1,5-benzothiazepin-8-yl)oxy)-2-fluoroacrylic acid and (R)—(Z)-3-((3-ethyl-7-(methylthio)-1,1-dioxido-5-phenyl-3-propyl-2,3,4,5-tetrahydro-1,5-benzothiazepin-8-yl)oxy)-2-fluoroacrylic acid], in that order: 283 nM and 5 nM.
For “(S)-(E)-3-((3-butyl-3-ethyl-5-(4-fluorophenyl)-7-(methylthio)-1,1-dioxido-2,3,4,5-tetrahydro-1,5-benzothiazepin-8-yl)oxy)acrylic acid and (R)-(E)-3-((3-butyl-3-ethyl-5-(4-fluorophenyl)-7-(methylthio)-1,1-dioxido-2,3,4,5 tetrahydro-1,5-benzothiazepin-8-yl)oxy)acrylic acid [Example 9]”, the IC50 against hIBAT turned out to be 151 nM; against hLBAT, 150 nM.
On the same counts, the results for `CCCC1(CC)CN(c2ccccc2)c2cc(SC)c(O/C=C/C(=O)O)cc2S(=O)(=O)C1` (centres unmarked) [Example 11, (E)-3-((3-ethyl-7-(methylthio)-1,1-dioxido-5-phenyl-3-propyl-2,3,4,5-tetrahydro-1,5-benzothiazepin-8-yl)oxy)acrylic acid] are 260 nM and 97 nM.
For `CCCC[C@@]1(CC)CN(c2ccccc2)c2cc(N(C)C)c(O/C=C/C(=O)O)cc2S(=O)(=O)N1.CCCC[C@]1(CC)CN(c2ccccc2)c2cc(N(C)C)c(O/C=C/C(=O)O)cc2S(=O)(=O)N1` (mixture of isomers) [Example 15, (S)-(E)-3-((3-butyl-7-(dimethylamino)-3-ethyl-1,1-dioxido-5-phenyl-2,3,4,5-tetrahydro-1,2,5-benzothiadiazepin-8-yl)oxy)acrylic acid and (R)-(E)-3-((3-butyl-7-(dimethylamino)-3-ethyl-1,1-dioxido-5-phenyl-2,3,4,5-tetrahydro-1,2,5-benzothiadiazepin-8-yl)oxy)acrylic acid], inhibition against hIBAT was half-maximal at 66 nM (IC50).
In the case of `CCC1(C(C)C)CN(c2ccccc2)c2cc(SC)c(O/C=C/C(=O)O)cc2S(=O)(=O)C1` (centres unmarked) [Example 16, (E)-3-((3-ethyl-3-isopropyl-7-(methylthio)-1,1-dioxido-5-phenyl-2,3,4,5-tetrahydro-1,5-benzothiazepin-8-yl)oxy)acrylic acid], the IC50 worked out at 565 nM at hIBAT and 218 nM against hLBAT.
For `CCC[C@@]1(CC)CN(c2ccccc2)c2cc(SC)c(O/C=C(\F)C(=O)O)cc2S(=O)(=O)C1.CCC[C@]1(CC)CN(c2ccccc2)c2cc(SC)c(O/C=C(\F)C(=O)O)cc2S(=O)(=O)C1` (mixture of isomers) [Example 18, (S)—(Z)-3-((3-ethyl-7-(methylthio)-1,1-dioxido-5-phenyl-3-propyl-2,3,4,5-tetrahydro-1,5-benzothiazepin-8-yl)oxy)-2-fluoroacrylic acid and (R)—(Z)-3-((3-ethyl-7-(methylthio)-1,1-dioxido-5-phenyl-3-propyl-2,3,4,5-tetrahydro-1,5-benzothiazepin-8-yl)oxy)-2-fluoroacrylic acid], in that order: 337 nM and 38 nM.
For `CCCCC1(CC)CN(c2ccc(F)cc2)c2cc(SC)c(O/C=C/C(=O)O)cc2S(=O)(=O)C1` (centres unmarked) [Example 8, (E)-3-((3-butyl-3-ethyl-5-(4-fluorophenyl)-7-(methylthio)-1,1-dioxido-2,3,4,5-tetrahydro-1,5-benzothiazepin-8-yl)oxy)acrylic acid], in that order: 7 nM and 118 nM.
On the same counts, the results for “(S)—(Z)-3-((3-butyl-3-ethyl-5-(4-fluorophenyl)-7-(methylthio)-1,1-dioxido-2,3,4,5-tetrahydro-1,5-benzothiazepin-8-yl)oxy)-2-fluoroacrylic acid and (R)—(Z)-3-((3-butyl-3-ethyl-5-(4-fluorophenyl)-7-(methylthio)-1,1-dioxido-2,3,4,5-tetrahydro-1,5-benzothiazepin-8-yl)oxy)-2-fluoroacrylic acid [Example 6]” are 66 nM and 12 nM.

For the origin of these results see patent US11267794B2, “Benzothia(di)azepine compounds and their use as bile acid modulators” (Albireo AB, priority 2019, dated 2022).
